We go through 5 compounds from patent US6693126B2, “Dihydroxyphenyl derivatives for hepatoprotection and treatment of liver diseases” (Choongwae Pharm. Co., Ltd., priority 2000, dated 2004).

This experiment has as its system Liver Injuries caused by D-galactosamine in Rats. The experiment in a line: Inhibitory effect against liver injuries caused by D-galactosamine in rats. It counts as in vivo, Rats (SD, male). The settings on record: D-galactosamine i.p., serum 24 h. The source says:
The hepatoprotective effect of the compound of formula (1) was also identified by D-galactosamine model(see, Koji Hase et al., Biol. Pharm. Bull., 20, 4, 381-385, 1997; Jun-ichi Nagakawa et al., J. Pharmacology and Experimental Therapeutics, 264, 1, 1992; Toxicology of the Liver, Raven Press, New York, 1985). The N-acyl galactosamine resulted from the excess administration of D-galactosamine acts as a substrate for UDP-galactosamine or UDP-N-acyl galactosamine. But, the inordinate synthesis of […] and UDP-hexosamine may inhibit the binding of UTP in the liver cells and biosynthsis of UDP-glucose and UDP-galactose, which finally causes the structural and functional changes of the liver cell membranes. Consequently, it results in sporadic necrosis and the increase of ALT and AST values in blood. Since the toxicity caused by D-galactosamine looks similar to the symptoms of viral hepatitis, D-galactosamine model is also used conventionally as a model for viral hepatitis.
The degree of liver damage in the experimental animals was determined by measuring ALT and AST values in blood(see, Biol. Pharm. Bull., 20, 4, 381-385, 1997; Toxicology and Applied Pharmacology, 95, 1-11, 1988), and the hepatoprotective activity was calculated based on the following formula(see, Planta Medica, 55, 127-132, 1989). At this time, the hepatoprotective activity can also be calculated based on the same formula by replacing ALT value with AST value. [formula]
The hepatoprotective effect of the compound of the present invention was identified according to a known procedure(see, Koji Hase et al., Biol. Pharm. Bull., 20, 4, 381-385, 1997), and the protocol may be described in brief as follows.
Rats(SD, male, 180˜200 g) as the test animal were allowed in a condition of temperature 22±1° C. and relative humidity 60±5%. Feed and water were provided with no restriction while light and darkness were changed at an interval of 12 hours.
The compound of the present invention was suspended in a solvent corn oil, and this suspension was administered in a dose of 2 ml/kg. Each group included 8 test animals, and the test compound was orally administered for once per animal. After 30 minutes from the administration of the test compound, D-galactosamine solution(concentration: 200 mg/ml) in physiological saline was intraperitoneally injected in a dose of 2 ml/kg. As the control compounds, silymarin and DDB were selected.
The test animals were provided with no feed and sufficient water for 24 hours from the administration of D-galactosamine. […] This blood was centrifuged to obtain sera. ALT and AST values in the sera were measured using blood chemistry analyzer(Vitalab, Selectra II, Merck). The statistical significance for the test result of each group was examined based on Student's t-test, and the result was recognized as having a statistical significance when its P value is less than 5%.

Consider `O/N=C/c1ccc2c(c1)OCO2` [Compound 1], for which the “Inhibitory Effect against Liver Injuries (%) ALT” value (shortened to “Inhibitory Effect … (%) ALT”) is on record as 5% (dose 16.7 mg/kg p.o. once) and 12% (dose 50 mg/kg p.o. once).
Take `COc1cc(/C=N/OCc2ccccn2)cc2c1OCO2` [Compound 13, 6-(2-((2-pyridyl)methoxy)-2-azavinyl)-4-methoxybenzo [d]1,3-dioxolane]: the “Inhibitory Effect … (%) ALT” value runs as follows: (dose 5.6 mg/kg p.o. once) 34%; (dose 16.7 mg/kg p.o. once) 35%; (dose 50 mg/kg p.o. once) 67%.
For `c1csc(-c2ccc3c(c2)OCO3)n1` [Compound 21, 2-(benzo[3,4-d]1,3-dioxolan-5-yl)-1,3-thiazole], the “Inhibitory Effect … (%) ALT” value by setting is: (dose 5.6 mg/kg p.o. once) 27%; (dose 16.7 mg/kg p.o. once) 32%; (dose 50 mg/kg p.o. once) 56%. Further, the “Inhibitory Effect against Liver Injuries(%) AST” value came to 29% (dose 5.6 mg/kg p.o. once), 29% (dose 16.7 mg/kg p.o. once) and 46% (dose 50 mg/kg p.o. once).
As to `CC(=O)SCC(=O)c1ccc2c(c1)OCO2` [Compound 28, 1-(benzo[3,4-d]1,3-dioxolan-5-yl)-2-acetylthioethan-1-one], the “Inhibitory Effect … (%) ALT” value is, setting by setting: (dose 5.6 mg/kg p.o. once) 42%; (dose 16.7 mg/kg p.o. once) 51%; (dose 50 mg/kg p.o. once) 52%. In addition, the “Inhibitory Effect against Liver Injuries(%) AST” value (dose 5.6 mg/kg p.o. once) was determined as 48%, the “Inhibitory Effect against Liver Injuries(%) AST” value (dose 16.7 mg/kg p.o. once) is listed as 55% and the “Inhibitory Effect against Liver Injuries(%) AST” value (dose 50 mg/kg p.o. once) is on record as 55%.
For the compound `COC(=O)c1cc(OC)c2c(c1-c1c(C(=O)OC)cc(OC)c3c1OCO3)OCO2` [DDB, reference compound], for the setting “dose 50 mg/kg p.o. once”, the “Inhibitory Effect … (%) ALT” value was determined as 28% and the “Inhibitory Effect against Liver Injuries(%) AST” value is given as 12%.
